Test results reported in publication PMC7822874, “Chemoprotective antimalarials identified through quantitative high-throughput screening of Plasmodium blood and liver stage parasites” (Scientific Reports, 2021).
Like-named read-outs stand apart in the source and are kept apart here.

How the values were obtained:
[1] = tested on: P. falciparum Dd2 Cytb G131S; assay: SYBR Green ABS proliferation assay, NCGC00374598 selected clone C11; assay type: cell-based, Plasmodium falciparum; conditions: Plasmodium falciparum
Outline: (§1)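 Proliferation of cytb-mutant Dd2 clones was measured by SYBR Green-I fluorescence at 72 h, normalized to controls.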

[2] = tested on: P. falciparum Dd2 Cytb F123L; assay: SYBR Green ABS proliferation assay, NCGC00473217 selected clone G08; assay type: cell-based, Plasmodium falciparum; conditions: Plasmodium falciparum
Outline: as §1

[3] = tested on: P. falciparum Dd2 Cytb V259L; assay: SYBR Green ABS proliferation assay, NCGC00473217 selected clone F06; assay type: cell-based, Plasmodium falciparum; conditions: Plasmodium falciparum
Outline: as §1

[4] = tested on: P. falciparum Dd2 Cytb A122D; assay: SYBR Green ABS proliferation assay, NCGC00473217 selected clone F12; assay type: cell-based, Plasmodium falciparum; conditions: Plasmodium falciparum
Outline: as §1

[5] = tested on: P. falciparum Dd2 (clone B2) asexual blood stage parasites; assay: P. falciparum Dd2 asexual blood stage SYBR Green-I 72 h proliferation assay (qHTS); assay type: cell-based, Plasmodium falciparum; conditions: Plasmodium falciparum, DD2, Dd2 parental; Hill fit, averaged from three independent replicates; top concentration 29 µM; read-out: Average AC50 (Log[M]), Dd2 (converted)
[6] = tested on: Plasmodium falciparum Dd2 asexual blood stage parasites; assay: microbe, parasite or virus in culture; parameters: species or system Plasmodium falciparum Dd2 in human erythrocytes; single determination (one 11-point concentration-response curve); conditions: Plasmodium falciparum, DD2, Erythrocyte, 72 h; read-out: AC50
[7] = tested on: luciferase-expressing P. berghei liver stage parasites in HepG2 cells; assay: Inhibition of liver-stage development assay (ILSDA), Method 2 (WRAIR, 96-well); assay type: cell-based, Plasmodium berghei; conditions: P. berghei liver stage, Method 2, dose response
[8] = DD2, […], averaged from three independent replicates, top concentration 29 µM, read-out: Average AC50 (Log[M]), NCGC00374598 clone C11 (Cytb G131S) (converted)
[9] = DD2, […], averaged from three independent replicates, top concentration 29 µM, read-out: Average AC50 (Log[M]), NCGC00473217 clone G08 (Cytb F123L) (converted)
[10] = DD2, […], averaged from three independent replicates, top concentration 29 µM, read-out: Average AC50 (Log[M]), NCGC00473217 clone F06 (Cytb V259L) (converted)
[11] = DD2, […], averaged from three independent replicates, top concentration 29 µM, read-out: Average AC50 (Log[M]), NCGC00473217 clone F12 (Cytb A122D) (converted)

SMILES | AC50 [1, 8] [M] | AC50 [2, 9] [M] | AC50 [3, 10] [M] | AC50 [4, 11] [M] | AC50 [5] [M] | AC50 [6] [µM] | AC50 ([1]; DD2, cytochrome b mutant line, second value triple, c6, […], read-out: log AC50, mean (converted)) [M] | AC50 ([2]; DD2, cytochrome b mutant line, fifth value triple, c15, […], read-out: log AC50, mean (converted)) [M] | Activity direction (Decrease / Inactive) [7] | AC50 ([3]; DD2, cytochrome b mutant line, third value triple, c9, […], read-out: log AC50, mean (converted)) [M] | AC50 ([4]; DD2, cytochrome b mutant line, fourth value triple, c12, […], read-out: log AC50, mean (converted)) [M]
CCCN1C(CC(C)C)=N[S+](=O)([O-])c2cc(NC(=O)c3ncccn3)ccc21 [NCGC00521149-01] | 1.59e-05 | 1.42e-05 | 1.19e-05 | 1.04e-05 | 1.12e-05 | – | – | – | – | – | –
O=c1[nH]c(N2CCOCC2)nc2c1CCN(Cc1cc(F)c(F)cc1F)CC2 [NCGC00440659-01] | – | – | – | – | – | 15 | 1.14e-05 | 4.91e-06 | Inactive | 1.81e-05 | 1.74e-05
CCCN1C(CC(C)C)=N[S+](=O)([O-])c2cc(NC(=O)c3ccc(F)cc3F)ccc21 [NCGC00523543-01] | 2e-06 | 3.56e-07 | 3.36e-06 | 1.93e-06 | 3.99e-06 | – | – | – | – | – | –
CCCN1C(CC(C)C)=N[S+](=O)([O-])c2cc(NC(=O)c3cc4c(s3)CCC4)ccc21 [NCGC00521150-01] | 1.04e-05 | 1.12e-05 | 1.12e-05 | 1.59e-05 | 1.59e-05 | – | – | – | – | – | –
CCCN1C(CC(C)C)=N[S+](=O)([O-])c2cc(NC(=O)c3cc(F)cc(F)c3)ccc21 [NCGC00523544-01] | 5.02e-06 | 1.08e-05 | 7.1e-06 | 9.66e-06 | 5.43e-06 | – | – | – | – | – | –
CCCN1C(CC(C)C)=N[S+](=O)([O-])c2cc(NC(=O)c3cc4ccccc4s3)ccc21 [NCGC00521881-01] | 1.42e-05 | 7.1e-06 | 6.84e-06 | 4.48e-06 | 1.65e-05 | – | – | – | – | – | –
CCCN1C(CC(C)C)=N[S+](=O)([O-])c2cc(NC(=O)c3coc4ccccc34)ccc21 [NCGC00521147-01] | 8.43e-06 | 8.93e-06 | 2.24e-06 | 5.64e-06 | 7.38e-06 | – | – | – | – | – | –
CCCN1C(CC(C)C)=N[S+](=O)([O-])c2cc(NC(=O)c3ccc(C)s3)ccc21 [NCGC00510977-01] | 8.93e-06 | 8.93e-06 | 1.04e-05 | 7.96e-06 | 8.61e-06 | – | – | – | – | – | –
CCCN1C(CC(C)C)=N[S+](=O)([O-])c2cc(NC(=O)c3ccc(F)s3)ccc21 [NCGC00523537-01] | 3.17e-07 | 3.85e-06 | 8.93e-07 | 7.96e-07 | 1.12e-07 | – | – | – | – | – | –
CCCN1C(CC(C)C)=N[S+](=O)([O-])c2cc(NC(=O)c3cc4cccnc4s3)ccc21 [NCGC00521132-01] | 2.82e-06 | 8.93e-06 | 2.99e-06 | 2.99e-06 | 6.7e-06 | – | – | – | – | – | –
CCCN1C(CC(C)C)=N[S+](=O)([O-])c2cc(NC(=O)c3c(F)cccc3F)ccc21 [NCGC00531536-01] | 1.22e-05 | 5.64e-06 | 1.22e-05 | 1e-05 | 1.59e-05 | – | – | – | – | – | –
CCCN1C(CC(C)C)=N[S+](=O)([O-])c2cc(NC(=O)C3CCN(C)CC3)ccc21 [NCGC00521111-01] | 1.17e-06 | 1.22e-05 | 1.53e-05 | 3.77e-07 | 2.08e-05 | – | – | – | – | – | –
CCCN1C(CC(C)C)=N[S+](=O)([O-])c2cc(NC(=O)c3ccccc3)ccc21 [NCGC00510420-02] | 4.23e-07 | 2.12e-08 | 1.12e-06 | 1.06e-06 | 1e-06 | – | – | – | – | – | –
